Test results reported in article PMC12744750 (Plant Communications, 2025).

Key:
[1] = test system: Arabidopsis pls mutant seedlings (primary root length); experiment: Hydroponic peptide feeding: rescue of short primary root of pls mutant; type: in vivo, Arabidopsis thaliana
Protocol: (A) Amino acid sequence of the PLS peptide from Arabidopsis thaliana with the Camelina sativa PLS sequence and the synthetic truncations N1, N2, C1, and C2 indicated by horizontal lines. Two cysteine residues are highlighted in bold. (B) Effect of the synthetic Arabidopsis PLS full-length peptide, A. thaliana PLS(FL), and the Camelina PLS peptide (C. sativa PLS) on Arabidopsis primary root length. Wild-type (C24; blue bars) and pls mutant seedlings (orange bars) were grown hydroponically in the presence (100 nM) or absence of peptide for 10 days. ∗∗∗P < 0.05, t-test between C24 and pls. Error bars show ±1 standard error of the mean, n = 20. (C) Effect of synthetic full-length and truncated peptides on primary root length of wild-type (blue bars) and pls mutant (orange bars) Arabidopsis. Seedlings were grown hydroponically in the presence of 50 nM peptide for 10 days. C1, C-terminal 14 amino acids; C2, C-terminal 24 amino acids; N1, N-terminal 22 amino acids; N2, N-terminal 9 amino acids; full-length PLS, 36 amino acids. Error bars show ±1 standard error of the mean, n = 25. ∗∗∗P < 0.05, t-test between C24 and pls.
proPLS::PLS:GFP comprises a 1.5-kb PLS promoter sequence ([Casson et al., 2002]) fused to the PLS open reading frame in pMDC107 (obtained from Prof. P.J. Hussey, Durham University) as a C-terminal GFP translational fusion. The PLS ORF with its 1.5-kb promoter was amplified from the TOPO 2.1 vector, which contained the PLS gene sequence with promoter ([Casson et al., 2002]); the primers used for cloning are listed in supplemental Table 9. pls mutant plants were transformed using the method of [Clough and Bent (1998)]. proPLS::GFP plants were generated using the 1.5-kb PLS promoter ([Casson et al., 2002]) fused to GFP in a wild-type background. p35S::GFP seedlings were obtained from Dr. Piers Hemsley, Durham University. Seedlings of Arabidopsis thaliana ecotype C24 or Col-0, pls mutants, and transgenic PLS overexpressers, all from lab stocks, were grown on solid sterile half-strength (2.2 g/l) Murashige and Skoog medium (Sigma-Aldrich) containing 10 g/l sucrose (half-strength [½] MS10 medium) solidified with 2.5 g/l Phytagel (Sigma-Aldrich) in 90-mm Petri dishes (Sarstedt, Leicester, UK) at 21°C under a 16-h photoperiod as described previously ([Casson et al., 2002]; [Chilley et al., 2006]). N. benthamiana plants (lab stocks) were grown in a controlled environment (21°C, 16-h photoperiod) for transient expression studies in leaf tissue. For hydroponic feeding studies, Arabidopsis seedlings were cultured in liquid ½ MS10 medium (1 ml/well) in sterile 24-well plates (Sarstedt), essentially as described in [Matsuzaki et al. (2010]). For hormone and peptide assays, one seedling was grown in each well at 21°C under a 16-h photoperiod. For peptide feeding experiments, purified freeze-dried peptide was dissolved in DMSO to create a 500-μM stock solution. The peptide stock solution was added to liquid ½ MS10 medium containing 0.1% DMSO to obtain a final peptide concentration of 50 or 100 nM (or 10, 25, 50, and 100 nM for dose-dependent assays). For copper treatments, 1 mM CuSO4 solution was filter sterilized and added to autoclaved liquid ½ MS10 medium to obtain final CuSO4 concentrations of 0, 5, 10, 15, 20, 25, 30, 35, 40, 45, and 50 μM. Seedlings were scanned to create a digital image, and root lengths of the seedlings were measured using ImageJ. Statistical analysis was performed using Real Statistics Resource Pack software (release 3.8, www.real-statistics.com) in Excel (Microsoft) using data from at least 10 independently grown seedlings for root growth analysis; specific numbers are defined for each experiment.

ETR1:HA = experiment: Co-IP competition: synthetic PLS vs PLS:GFP binding to ETR1:HA in N. benthamiana leaves; parameters: species or system Arabidopsis; settings: 25 nM synthetic PLS(FL), 0.5 μM CuSO4, 50 μM MG-132, 30 min before tissue harvest
Text: To investigate the interaction between the PLS peptide and the ethylene receptor ETR1, two DNA constructs were created by Gateway cloning. The […] PLS gene (without the stop codon) was inserted into the pEarlyGate103 (pEG103) destination vector, which contained the pro35S promoter and a C-terminal GFP tag, to produce a vector containing pro35S::PLS:GFP DNA. The ETR1 cDNA was inserted into the pEarlyGate301 (pEG301) vector to create a pro35S::ETR1:HA construct to express an ETR1 protein with a C-terminal HA tag. pro35S::GFP was used as a control. The primers used to clone ETR1 and PLS are found in supplemental Table 9.
Constructs were transiently expressed in N. benthamiana (tobacco) leaves as described previously ([Voinnet et al., 2003]). Experiments were replicated up to five times. Competent Agrobacterium tumefaciens GV3101 cells were transformed with the desired plasmid containing the gene of interest and injected with a syringe. The plants were approximately 7–10 weeks old; the chosen leaves were healthy and 3–6 cm in length, and 3 to 4 leaves were infiltrated with each construct. […]
SDS–PAGE was used to separate protein fragments. The complexed proteins from the pulldown assay were analyzed on 10%–12% acrylamide gels. […] The horseradish peroxidase conjugated to the secondary antibody was detected using X-ray film. […]

In the case of “PLS(FL): full-length 36-amino-acid PLS peptide from Arabidopsis (MKPRLCFNFRRRSISPCYISISYLLVAKLFKLFKIH)”, the “rescue of root growth of pls seedlings” value ([1]; 50 nM peptide, hydroponic, 10 days, n = 25 (Figure 2C)) is reported as “rescued root growth”, the “difference in rescue effects of PLS(FL) and PLS(N1), t-test P” value ([1]; 50 nM, n = 25) is reported as over 0.1 and the “difference in rescue effects of PLS(FL) and PLS(N1)” value ([1]; 50 nM, n = 25, t-test) is reported as “did not differ significantly”. For the same substance, the “rescue of short primary root length of pls mutant” value ([1]; hydroponic, 10 days, 100 nM (Figure 2B) or 50 nM (Figure 2C)) was “able to rescue the short primary root length” and the “reduction in PLS:GFP binding to ETR1:HA” value (ETR1:HA) was about 80%.
